Source: patent US20230357447A1, “TUMOR ACTIVATED MULTISPECIFIC ANTIBODIES FOR TARGETING CD28 AND PD-L1 AND METHODS OF USE THEREOF” (Janux Therapeutics, Inc., priority 2022, published 2023)

The compounds below were run on anti-CD28 scFv (SEQ ID NO: 9) (assay: Octet bio-layer interferometry kinetic binding of anti-CD28 scFv to peptides). Settings: Octet RED96; biotinylated peptide loaded on streptavidin biosensor; anti-CD28 scFv in solution; 1:1 binding model.
Parameters: species or system human
Method: (§1) Association and dissociation signals were recorded in real time and analyzed using a 1:1 binding model within the instrument software. Analysis using a 1:1 binding model enabled the calculation of the on and off rate constants as well as affinity, KD.
as §1

| Compound | kdis [s⁻¹] |
| --- | --- |
| CSCC[C@H](N)C(=O)N[C@@H](CC(=O)O)C(=O)N[C@@H](Cc1c[nH]c2ccccc12)C(=O)N[C@H]1CSSC[C@@H](C(=O)N[C@@H](Cc2ccccc2)C(=O)N[C@@H](CC(N)=O)C(=O)O)NC(=O)[C@H](CCC(=O)O)NC(=O)[C@H](CC(N)=O)NC(=O)[C@H](Cc2c[nH]c3ccccc23)NC(=O)[C@H](CC(C)C)NC(=O)[C@H](Cc2ccc(O)cc2)NC(=O)[C@H](CC(C)C)NC(=O)[C@@H]2CCCN2C1=O [Peptide-36] | 0.00252 |
| CSCC[C@@H]1NC(=O)[C@H](CC(=O)O)NC(=O)[C@H](CCCNC(=N)N)NC(=O)[C@@H]2CCCN2C(=O)[C@@H](NC(=O)[C@H](Cc2c[nH]c3ccccc23)NC(=O)[C@H](CC(=O)O)NC(=O)[C@@H](N)CCSC)CSSC[C@@H](C(=O)N[C@@H](Cc2ccccc2)C(=O)N[C@@H](CO)C(=O)O)NC(=O)[C@H](C(C)C)NC(=O)[C@H](CO)NC(=O)[C@H](Cc2c[nH]c3ccccc23)NC1=O [Peptide-44] | 0.00812 |
| CSCC[C@H](N)C(=O)N[C@@H](CC(=O)O)C(=O)N[C@@H](Cc1c[nH]c2ccccc12)C(=O)N[C@H]1CSSC[C@@H](C(=O)N[C@@H](Cc2ccccc2)C(=O)N[C@@H](C)C(=O)O)NC(=O)[C@H](CC(C)C)NC(=O)[C@H](CC(=O)O)NC(=O)[C@H](Cc2c[nH]c3ccccc23)NC(=O)[C@H](CC(C)C)NC(=O)[C@H](CC(=O)O)NC(=O)[C@H](CCCNC(=N)N)NC(=O)[C@@H]2CCCN2C1=O [Peptide-37] | 0.00351 |
| CSCC[C@H](N)C(=O)N[C@@H](Cc1c[nH]cn1)C(=O)N[C@@H](Cc1c[nH]c2ccccc12)C(=O)N[C@H]1CSSC[C@@H](C(=O)N[C@@H](Cc2ccc(O)cc2)C(=O)N[C@@H](CC(N)=O)C(=O)O)NC(=O)[C@H](CC(C)C)NC(=O)[C@H](Cc2ccc(O)cc2)NC(=O)[C@H](Cc2c[nH]c3ccccc23)NC(=O)[C@H](CC(C)C)NC(=O)[C@H](CC(=O)O)NC(=O)[C@H](C(C)C)NC(=O)[C@@H]2CCCN2C1=O [Peptide-49] | 0.00186 |
| CSCC[C@H](N)C(=O)N[C@@H](CC(=O)O)C(=O)N[C@@H](Cc1c[nH]c2ccccc12)C(=O)N[C@H]1CSSC[C@@H](C(=O)N[C@@H](Cc2ccccc2)C(=O)N[C@@H](C)C(=O)O)NC(=O)[C@H](Cc2c[nH]cn2)NC(=O)[C@H](C(C)C)NC(=O)[C@H](Cc2c[nH]c3ccccc23)NC(=O)[C@H](CC(C)C)NC(=O)[C@H](CC(=O)O)NC(=O)[C@H](CCCNC(=N)N)NC(=O)[C@@H]2CCCN2C1=O [Peptide-41] | 0.00154 |
| CC[C@H](C)[C@@H]1NC(=O)[C@@H]2CCCN2C(=O)[C@@H](NC(=O)[C@H](Cc2c[nH]c3ccccc23)NC(=O)[C@H](CC(=O)O)NC(=O)[C@@H](N)CCSC)CSSC[C@@H](C(=O)N[C@@H](Cc2ccccc2)C(=O)N[C@@H](Cc2ccccc2)C(=O)O)NC(=O)[C@H](CCC(=O)O)NC(=O)[C@H](CC(N)=O)NC(=O)[C@H](Cc2c[nH]c3ccccc23)NC(=O)[C@H](CC(C)C)NC(=O)[C@H](CC(=O)O)NC1=O [Peptide-31] | 0.00369 |

The compounds below were run on anti-CD28 scFv (assay: Phage binding ELISA (panning) of clonal phage on anti-CD28 scFv, with or without CD28 soluble protein). Settings: Phage binding ELISA; captured anti-CD28 scFv pre-incubated with CD28 soluble protein.
Method in brief: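 Wells pre-incubated with blocking buffer plus CD28 soluble protein or blocking buffer alone, then crude clonal phage supernatants added without washing for a short incubation. After washing, bound phage detected with HRP-conjugated anti-M13 antibody.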

| Compound | CD28 scFv signal in presence of CD28 |
| --- | --- |
| Phage-111 (MDWCPFYLWNECFY) | 0.594 |
| Phage-87 (MDWCPKDLWYLCFA) | 0.213 |
| Phage-115 (MDWCPRYLWHECFN) | 0.421 |

Same assay, conditions: Phage binding ELISA; captured biotinylated anti-CD28 scFv, blocking buffer alone

| Compound | CD28 scFv signal |
| --- | --- |
| Phage-111 (MDWCPFYLWNECFY) | 2.528 |
| Phage-87 (MDWCPKDLWYLCFA) | 2.608 |
| Phage-115 (MDWCPRYLWHECFN) | 2.490 |

Same assay, conditions: Phage binding ELISA; clonal phage supernatant, background wells

| Compound | Backgroud signal |
| --- | --- |
| Phage-122 (MDWCPRDLWDQCYA) | 0.059 |
| Phage-123 (MDWCPIHLWNECFA) | 0.104 |
| Phage-133 (MDWCPRFLWDECFF) | 0.064 |
| Phage-111 (MDWCPFYLWNECFY) | 0.099 |
| Phage-124 (MDWCPRPLWDMCFF) | 0.063 |
| Phage-142 (MDWCPVILWDFCFN) | 0.066 |
| Phage-87 (MDWCPKDLWYLCFA) | 0.200 |
| Phage-146 (MDWCPRHLWSECFY) | 0.136 |
| Phage-157 (MDWCPRSLWSYCFH) | 0.066 |
| Phage-119 (MDWCPRYLWHMCYS) | 0.129 |
| Phage-156 (MDWCPKHLWHQCFH) | 0.058 |
| Phage-118 (MDWCPRHLWDECFF) | 0.074 |
| Phage-115 (MDWCPRYLWHECFN) | 0.105 |

Same assay, conditions: clonal phage supernatant on captured anti-CD28 scFv pre-incubated with CD28 soluble protein

| Compound | Phage binding ELISA CD28 scFv signal in presence of CD28 |
| --- | --- |
| Phage-74 (MDWCPRDMWLFCYN) | 1.023 |
| Phage-76 (MDWCPRYLWSDCFA) | 1.530 |
| Phage-46 (MHWCPIDLWAECYA) | 0.225 |
| Phage-67 (MNWCPTALWHVCFN) | 0.169 |

Same assay, conditions: clonal phage supernatant on captured biotinylated anti-CD28 scFv; blocking buffer alone

| Compound | Phage binding ELISA CD28 scFv signal |
| --- | --- |
| Phage-74 (MDWCPRDMWLFCYN) | 2.707 |
| Phage-76 (MDWCPRYLWSDCFA) | 2.727 |
| Phage-46 (MHWCPIDLWAECYA) | 2.278 |
| Phage-67 (MNWCPTALWHVCFN) | 1.644 |

Same assay, conditions: clonal phage supernatant; background (no anti-CD28 scFv signal)

| Compound | Phage binding ELISA Backgroud signal |
| --- | --- |
| Phage-383 (LAGCQRDLATVCVI) | 0.068 |
| Phage-406 (MNWCPIDMWTECFN) | 0.245 |
| Phage-397 (MDWCPRAMWDYCFY) | 0.123 |
| Phage-415 (MDWCPMYMWHKCFH) | 0.099 |
| Phage-412 (QHWCPRDMWNDCYA) | 0.066 |
| Phage-420 (MFWCPSTMWNRCFD) | 0.063 |
| Phage-439 (MDWCPRDRWDVCFA) | 0.073 |
| Phage-408 (MFWCPKDMWAECFA) | 0.099 |
| Phage-398 (MDWCPRNMWNECFF) | 0.095 |
| Phage-435 (MDWCPRDRWVDCYA) | 0.157 |
| Phage-396 (TDWCPRDMWYLCFN) | 0.082 |
| Phage-413 (MDWCPSDMWSNCFN) | 0.070 |
| Phage-395 (MDWCPKDMWAECFN) | 0.083 |
| Phage-387 (MDWCPRHLWLECFN) | 0.064 |
| Phage-443 (MDWCPMTRWNDCYF) | 0.081 |

Same assay, conditions: clonal phage supernatant; background signal

| Compound | Phage binding ELISA Backgroud signal |
| --- | --- |
| Phage-210 (MDWCPRDMWFECFA) | 0.076 |
| Phage-250 (MDWCPKVMWHYCFA) | 0.136 |
| Phage-320 (MDWCPTYLWNECFN) | 0.120 |
| Phage-314 (MDWCPIHLWNECFN) | 0.074 |
| Phage-174 (MDWCPKHLWNECFN) | 0.063 |
| Phage-224 (MDWCPKDRWNDCYF) | 0.078 |
| Phage-177 (MDWCPVSLWDHCFN) | 0.075 |
| Phage-221 (TTWCPTSMWLHCFD) | 0.096 |
| Phage-293 (MDWCPRHLWFECFN) | 0.064 |
| Phage-325 (MDWCPAYLWDECFA) | 0.096 |
| Phage-280 (MDWCPRYLWDYCFA) | 0.073 |
| Phage-333 (MDWCPTDLWHECFA) | 0.078 |
| Phage-54 (MNWCPRDMWYQCFN) | 0.068 |
| Phage-369 (MHWCPRDLWYECFA) | 0.072 |
| Phage-74 (MDWCPRDMWLFCYN) | 0.097 |
| Phage-76 (MDWCPRYLWSDCFA) | 0.084 |
| Phage-188 (MDWCPSYLWDQCFF) | 0.100 |
| Phage-260 (MDWCPVFMWNECFN) | 0.079 |
| Phage-213 (MNWCPSYMWDQCFA) | 0.125 |
| Phage-248 (MDWCPRNMWHHCFD) | 0.205 |
| Phage-164 (MDWCPKFLWDLCFA) | 0.100 |
| Phage-319 (MSWCPRDLWHLCFF) | 0.077 |

| Compound | Phage binding ELISA Backgroud signal |
| --- | --- |
| Phage-208 (MDWCPTDMWIVCFA) | 0.363 |
| Phage-283 (MDWCPRHLWNECFN) | 0.079 |
| Phage-316 (MDWCPRSLWNYCFA) | 0.067 |
| Phage-201 (MDWCPRDMWDQCFD) | 0.072 |
| Phage-304 (MDWCPKFLWDECFA) | 0.311 |
| Phage-309 (MDWCPMFLWHECFN) | 0.170 |
| Phage-59 (MDWCPRDSWHLCFA) | 0.073 |
| Phage-46 (MHWCPIDLWAECYA) | 0.082 |
| Phage-67 (MNWCPTALWHVCFN) | 0.067 |
| Phage-159 (MAWCPMNLWDQCFF) | 0.070 |
| Phage-211 (MDWCPRNMWTVCFL) | 0.060 |
| Phage-329 (MDWCPRALWNVCFA) | 0.071 |
| Phage-306 (MDWCPRHLWNECFA) | 0.068 |
| Phage-202 (MFWCPMDMWDQCFN) | 0.091 |
| Phage-83 (MDWCPRFLWDECFN) | 0.065 |
| Phage-332 (IDWCPRALWDACLA) | 0.269 |
| Phage-175 (MDWCPAYLWAECFS) | 0.082 |
| Phage-258 (MDWCPRSLWHVCFN) | 0.098 |
| Phage-195 (MDWCPKHMWFMCFN) | 0.101 |
| Phage-249 (MDWCPSDMWAHCYN) | 0.191 |
| Phage-264 (MDWCPRHLWHVCFN) | 0.070 |
